Counter-ions that a name gives are not always drawn. Like-named read-outs stand apart in the source and are kept apart here.

Common to all, as to assay type: cell-based
One experiment concerns the target hSTING-wt (Homo sapiens, UniProt Q86WV6). Nature of the experiment: Cellular Functional Assay I: ISRE-SEAP reporter in HEK-293T-Dual Null cells transfected with hSTING-wt. The following applies: HEK-293T-Dual Null, hSTING-wt.
A further experiment addresses hSTING-H232 (Homo sapiens, UniProt Q86WV6). Nature of the experiment: Cellular Functional Assay I: ISRE-SEAP reporter in HEK-293T-Dual Null cells transfected with hSTING-H232. The following applies: HEK-293T-Dual Null, hSTING-H232.
A further experiment deals with hSTING-HAQ (Homo sapiens, UniProt Q86WV6, G230A/H232R/R293Q/R71H). Nature of the experiment: Cellular Functional Assay I: ISRE-SEAP reporter in HEK-293T-Dual Null cells transfected with hSTING-HAQ. The following applies: HEK-293T-Dual Null, hSTING-HAQ.
Chain of hSTING-HAQ (Q86WV6 whole entry R71H/G230A/H232R/R293Q): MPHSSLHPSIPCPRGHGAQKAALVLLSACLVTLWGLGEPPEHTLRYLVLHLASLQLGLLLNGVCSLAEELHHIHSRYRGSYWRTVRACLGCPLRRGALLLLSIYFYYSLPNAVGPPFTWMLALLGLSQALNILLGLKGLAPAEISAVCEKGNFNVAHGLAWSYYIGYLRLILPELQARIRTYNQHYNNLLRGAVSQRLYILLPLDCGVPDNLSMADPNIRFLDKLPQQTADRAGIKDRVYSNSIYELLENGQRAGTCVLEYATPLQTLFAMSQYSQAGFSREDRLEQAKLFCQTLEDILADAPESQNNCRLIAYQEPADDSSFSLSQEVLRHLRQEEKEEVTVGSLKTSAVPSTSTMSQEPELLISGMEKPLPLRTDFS
In a further experiment the target is T1, hSTING-AQ (Homo sapiens, UniProt Q86WV6, G230A/R293Q).
T1 construct: expressed in transfected cells
T1 sequence (Q86WV6 whole entry G230A/H232R/R293Q): as the sequence (Q86WV6 whole entry R71H/G230A/H232R/R293Q) above, with H71R counted along it
Nature of the experiment: Cellular Functional Assay I: ISRE-SEAP reporter, hSTING-AQ allele.

Another experiment addresses T2, hSTING-Q (Homo sapiens, UniProt Q86WV6, R293Q).
T2 construct: expressed in transfected cells
Nature of the experiment: Cellular Functional Assay I: ISRE-SEAP reporter, hSTING-Q allele.

A further experiment addresses T3, mSTING-wt (Mus musculus, UniProt Q3TBT3).
T3 sequence (Q3TBT3 1-378): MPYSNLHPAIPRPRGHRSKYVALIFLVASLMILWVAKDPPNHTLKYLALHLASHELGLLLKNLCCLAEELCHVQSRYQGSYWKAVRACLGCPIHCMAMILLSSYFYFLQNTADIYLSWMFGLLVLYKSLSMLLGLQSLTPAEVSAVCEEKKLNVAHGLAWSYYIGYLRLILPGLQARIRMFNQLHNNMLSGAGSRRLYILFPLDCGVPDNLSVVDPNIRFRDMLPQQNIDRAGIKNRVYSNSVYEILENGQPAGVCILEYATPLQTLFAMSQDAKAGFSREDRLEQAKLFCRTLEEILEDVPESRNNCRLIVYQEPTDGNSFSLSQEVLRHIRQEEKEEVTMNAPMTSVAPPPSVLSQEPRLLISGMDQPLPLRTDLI
Nature of the experiment: Cellular Functional Assay I: ISRE-SEAP reporter in HEK-293T-Dual Null cells transfected with mouse STING.

The subject of a further experiment is human PBMCs. Nature of the experiment: Cellular Functional Assay III: IFN-β production from human PBMCs. The following applies: PBMC. The method, then: Frozen human PBMCs (BioIVT Inc.) were thawed first in a 37° C. water bath, then washed with RPMI/10% FBS/2 mM EDTA medium twice before establishing a viable cell count by Trypan Blue. The final cell density for each donor was 5×10^6 cells per well with RPMI/10% FBS medium in a 96 well u-bottom plate.
Human PBMCs were then incubated with testing compounds with indicated concentrations and control for 4 hours at 37° C. in cell culture incubator. After incubation, supernatant was collected and used for measuring induced cytokine level by cytometric bead array analysis.

[1] abbreviates: SEAP reporter, HEK-293T-Dual Null, mSTING-wt, read-out: EC50 mSTING-wt.

Chain of hSTING-wt (Q86WV6 whole entry H232R): as the sequence (Q86WV6 whole entry R71H/G230A/H232R/R293Q) above, with H71R, A230G, Q293R counted along it
Chain of hSTING-H232 (Q86WV6 whole entry): as the sequence (Q86WV6 whole entry R71H/G230A/H232R/R293Q) above, with H71R, A230G, R232H, Q293R counted along it
T2 sequence (Q86WV6 whole entry R293Q): as the sequence (Q86WV6 whole entry R71H/G230A/H232R/R293Q) above, with H71R, A230G, R232H counted along it

Turning to `CCn1nc(C)cc1C(=O)Nc1nc2cc(C(N)=O)sc2n1C/C=C/CNC(=O)OC(C)(C)C` [Compound H, tert-butyl N-[(E)-4-[5-carbamoyl-2-[(2-ethyl-5-methyl-pyrazole-3-carbonyl)amino]thieno[2,3-d]imidazol-3-yl]but-2-enyl]carbamate], the EC50 on hSTING-wt, on hSTING-H232, at hSTING-HAQ, on hSTING-AQ, at hSTING-Q and at mSTING-wt (setting [1]) was over 500 nM in each case.

As to `CCn1nc(C)cc1C(=O)Nc1nc2cc(C(N)=O)cnc2n1C/C=C/Cn1c(NC(=O)c2cc(C)nn2CC)nc2cc(C(N)=O)cnc21` [Compound L, 3-[(E)-4-[6-carbamoyl-2-[(2-ethyl-5-methyl-pyrazole-3-carbonyl)amino]imidazo[4,5-b]pyridin-3-yl]but-2-enyl]-2-[(2-ethyl-5-methyl-pyrazole-3-carbonyl)amino]imidazo[4,5-b]pyridine-6-carboxamide], the EC50 at hSTING-wt was 1 to 500 nM; at hSTING-H232, 1 to 500 nM; on hSTING-HAQ, over 500 nM; on hSTING-AQ, over 500 nM; on hSTING-Q, 1 to 500 nM; on mSTING-wt (setting [1]), 1 to 500 nM.

For the molecule `CCn1nc(C)cc1C(=O)Nc1nc2cc(C(N)=O)ccc2n1C/C=C/Cn1c(NC(=O)c2cc(C)nn2CC)nc2cc(C(N)=O)sc21` [Compound M, 3-[(E)-4-[5-carbamoyl-2-[(2-ethyl-5-methyl-pyrazole-3-carbonyl)amino]benzimidazol-1-yl]but-2-enyl]-2-[(2-ethyl-5-methyl-pyrazole-3-carbonyl)amino]thieno[2,3-d]imidazole-5-carboxamide Tetrahydrochloride], the EC50 is 1 to 500 nM on hSTING-wt; 1 to 500 nM at hSTING-H232; over 500 nM at hSTING-HAQ; over 500 nM on hSTING-AQ; 1 to 500 nM at hSTING-Q; 1 to 500 nM on mSTING-wt (setting [1]).

Take `CCn1nc(C)cc1C(=O)Nc1nc2cc(C(N)=O)sc2n1C/C=C/Cn1c(NC(=O)c2cc(C)nn2CC)nc2cc(C(N)=O)cc(OCCOC(F)F)c21` [Compound N, 3-[(E)-4-[5-carbamoyl-7-[2-(difluoromethoxy)ethoxy]-2-[(2-ethyl-5-methyl-pyrazole-3-carbonyl)amino]benzimidazol-1-yl]but-2-enyl]-2-[(2-ethyl-5-methyl-pyrazole-3-carbonyl)amino]thieno[2,3-d]imidazole-5-carboxamide Tetrahydrochloride]: the EC50 on hSTING-wt is under 1 nM; at hSTING-H232 it was under 1 nM; at hSTING-HAQ it was over 500 nM; at hSTING-AQ, over 500 nM; at hSTING-Q, 1 to 500 nM; on mSTING-wt (setting [1]), 1 to 500 nM.

Take `CCn1nc(C)cc1C(=O)Nc1nc2cc(C(N)=O)cnc2n1C/C=C/Cn1c(NC(=O)c2cc(C)nn2CC)nc2cc(C(N)=O)cc(OCCCN(C)C)c21` [Compound P, 3-[(E)-4-[5-carbamoyl-7-[3-(dimethylamino)propoxy]-2-[(2-ethyl-5-methyl-pyrazole-3-carbonyl)amino]benzimidazol-1-yl]but-2-enyl]-2-[(2-ethyl-5-methyl-pyrazole-3-carbonyl)amino]imidazo[4,5-b]pyridine-6-carboxamide]: the EC50 on hSTING-wt, on hSTING-H232, at hSTING-HAQ, on hSTING-AQ, on hSTING-Q and at mSTING-wt (setting [1]) was 1 to 500 nM each time.

`CCn1nc(C)cc1C(=O)Nc1nc2cc(C(N)=O)cnc2n1C/C=C/Cn1c(NC(=O)c2cc(C)nn2CC)nc2cc(C(N)=O)cc(OCCCO)c21` [Compound R]: the EC50 on hSTING-wt, at hSTING-H232, on hSTING-HAQ, on hSTING-AQ, at hSTING-Q and on mSTING-wt was 1 to 500 nM throughout.

As to `CCn1nc(C)cc1C(=O)Nc1nc2cc(C(N)=O)cnc2n1C/C=C/Cn1c(NC(=O)c2cc(C)nn2CC)nc2cc(C(N)=O)cc(OCCCNC)c21` [Compound S, 3-[(E)-4-[5-carbamoyl-2-[(2-ethyl-5-methyl-pyrazole-3-carbonyl)amino]-7-[3-(methylamino)propoxy]benzimidazol-1-yl]but-2-enyl]-2-[(2-ethyl-5-methyl-pyrazole-3-carbonyl)amino]imidazo[4,5-b]pyridine-6-carboxamide], the EC50 on hSTING-wt, on hSTING-H232, on hSTING-HAQ, at hSTING-AQ, on hSTING-Q and on mSTING-wt (setting [1]) was 1 to 500 nM in each case.

Regarding `CCn1nc(C)cc1C(=O)Nc1nc2cc(C(N)=O)cnc2n1C/C=C/Cn1c(NC(=O)c2cc(C)nn2CC)nc2cc(C(N)=O)cc(OCCCN3CCOCC3)c21` [Compound T, 3-[(E)-4-[5-carbamoyl-2-[(2-ethyl-5-methyl-pyrazole-3-carbonyl)amino]-7-(3-morpholinopropoxy)benzimidazol-1-yl]but-2-enyl]-2-[(2-ethyl-5-methyl-pyrazole-3-carbonyl)amino]imidazo[4,5-b]pyridine-6-carboxamide], the EC50 on hSTING-wt, at hSTING-H232, at hSTING-HAQ, at hSTING-AQ, at hSTING-Q and at mSTING-wt (setting [1]) was 1 to 500 nM in each case. Further, the EC50 was 100 to 500 nM in the experiment with human PBMCs (Donor 1, 4 hours, read-out: Potency (IFN-β production) in Human PBMCs (EC50s) Donor 1); under 100 nM in the experiment on human PBMCs (Donor 2, 4 hours, read-out: Potency (IFN-β production) in Human PBMCs (EC50s) Donor 2); under 100 nM with human PBMCs (Donor 3, 4 hours, read-out: Potency (IFN-β production) in Human PBMCs (EC50s) Donor 3); 100 to 500 nM in the experiment on human PBMCs (Donor 4, 4 hours, read-out: Potency (IFN-β production) in Human PBMCs (EC50s) Donor 4).

In the case of `CCn1nc(C)cc1C(=O)Nc1nc2cc(C(N)=O)cnc2n1C/C=C/Cn1c(NC(=O)c2cc(C)nn2CC)nc2cc(C(N)=O)cc(OCCCNCCOC(F)F)c21` [Compound U, 3-[(E)-4-[5-carbamoyl-7-[3-[2-(difluoromethoxy)ethylamino]propoxy]-2-[(2-ethyl-5-methyl-pyrazole-3-carbonyl)amino]benzimidazol-1-yl]but-2-enyl]-2-[(2-ethyl-5-methyl-pyrazole-3-carbonyl)amino]imidazo[4,5-b]pyridine-6-carboxamide], the EC50 on hSTING-wt, at hSTING-H232, at hSTING-HAQ, at hSTING-AQ, at hSTING-Q and on mSTING-wt (setting [1]) was 1 to 500 nM in each case.

Turning to `CCn1nc(C)cc1C(=O)Nc1nc2cc(C(N)=O)cnc2n1C/C=C/Cn1c(NC(=O)c2cc(C)nn2CC)nc2cc(C(N)=O)cc(OCCCN(C)CCOC)c21` [Compound V, 3-[(E)-4-[5-carbamoyl-2-[(2-ethyl-5-methyl-pyrazole-3-carbonyl)amino]-7-[3-[2-methoxyethyl(methyl)amino]propoxy]benzimidazol-1-yl]but-2-enyl]-2-[(2-ethyl-5-methyl-pyrazole-3-carbonyl)amino]imidazo[4,5-b]pyridine-6-carboxamide], the EC50 on hSTING-wt, on hSTING-H232, at hSTING-HAQ, on hSTING-AQ, on hSTING-Q and on mSTING-wt (setting [1]) was 1 to 500 nM each time.

`CCn1nc(C)cc1C(=O)Nc1nc2cc(C(N)=O)cnc2n1C/C=C/Cn1c(NC(=O)c2cc(C)nn2CC)nc2cc(C(N)=O)cc(OCCCN3CCCOCC3)c21` [Compound Z, 3-[(E)-4-[5-carbamoyl-2-[(2-ethyl-5-methyl-pyrazole-3-carbonyl)amino]-7-[3-(1,4-oxazepan-4-yl)propoxy]benzimidazol-1-yl]but-2-enyl]-2-[(2-ethyl-5-methyl-pyrazole-3-carbonyl)amino]imidazo[4,5-b]pyridine-6-carboxamide]: the EC50 on hSTING-wt, at hSTING-H232, at hSTING-HAQ, at hSTING-AQ, at hSTING-Q and at mSTING-wt (setting [1]) was 1 to 500 nM in each case.

The record behind these values is patent US20200031825A1, “HETEROAROMATIC-FUSED IMIDAZOLYL AMIDES, COMPOSITIONS AND USES THEREOF AS STING AGONISTS” (Trillium Therapeutics Inc., priority 2018, published 2020).
